Results published in patent US10517889B2, “Modulators of SMAD7 expression” (Ionis Pharmaceuticals, Inc., priority 2017, dated 2019).
Strand notation (5' to 3'): a small letter for the sugar, then the base; units joined by * are phosphorothioate-linked, units joined directly phosphodiester-linked; [ ] holds rarer units or linkages, { } end groups; capitals alone tell only the bases. k = constrained ethyl (cEt); [5mC] = 5-methylcytosine; d = 2'-deoxy (DNA)

Tested on: human SMAD7 mRNA
Assay: Antisense inhibition of human SMAD7 mRNA expression in Hep3B cells by 3-10-3 cEt gapmers, 10,000 nM, electroporation (Example 2)
Assay type: cell-based
Details: SMAD7 mRNA, Hep3B cells, electroporation with 10,000 nM antisense oligonucleotide, approximately 24 hours, primer probe set RTS5062, relative to untreated control cells
In short: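 Hep3B cells (20,000 per well) were electroporated with 10,000 nM 16-mer 3-10-3 cEt gapmer (phosphorothioate, 5-methylcytosine). After about 24 h, SMAD7 mRNA was quantified by qRT-PCR with primer probe set RTS5062, normalised to RIBOGREEN total RNA, and expressed as percent inhibition versus untreated cells.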

Substance	% Inhibition [%]
829976 (kA*k[5mC]*kA*dA*dA*dA*dG*dA*dG*dG*d[5mC]*d[5mC]*dG*k[5mC]*k[5mC]*kT; antisense) [compound 829976]	10
829977 (kT*kA*kG*d[5mC]*dT*dG*dT*d[5mC]*dA*dG*dA*dT*dA*kA*kA*k[5mC]; antisense) [compound 829977]	35
829978 (kA*kT*kA*dT*dT*dT*dA*dG*d[5mC]*dT*dG*dT*d[5mC]*kA*kG*kA; antisense) [compound 829978]	50
829979 (kT*kG*kA*dT*dA*dT*dT*dT*dA*dG*d[5mC]*dT*dG*kT*k[5mC]*kA; antisense) [compound 829979]	49
829981 (kG*kT*kG*dA*dT*dT*dG*d[5mC]*d[5mC]*dT*dT*dG*dA*kT*kA*kT; antisense) [compound 829981]	14
829982 (k[5mC]*kG*kG*dT*dG*dA*dT*dT*dG*d[5mC]*d[5mC]*dT*dT*kG*kA*kT; antisense) [compound 829982]	44
829983 (kG*kG*k[5mC]*dG*dG*dT*dG*dA*dT*dT*dG*d[5mC]*d[5mC]*kT*kT*kG; antisense) [compound 829983]	43
829984 (kA*kG*kG*d[5mC]*dG*dG*dT*dG*dA*dT*dT*dG*d[5mC]*k[5mC]*kT*kT; antisense) [compound 829984]	0
829985 (kG*kA*kG*dG*d[5mC]*dG*dG*dT*dG*dA*dT*dT*dG*k[5mC]*k[5mC]*kT; antisense) [compound 829985]	16
829986 (k[5mC]*kG*kA*dG*dG*d[5mC]*dG*dG*dT*dG*dA*dT*dT*kG*k[5mC]*k[5mC]; antisense) [compound 829986]	28
829987 (k[5mC]*k[5mC]*kG*d[5mC]*dG*dA*dG*dG*d[5mC]*dG*dG*dT*dG*kA*kT*kT; antisense) [compound 829987]	6
829988 (kG*k[5mC]*k[5mC]*dG*d[5mC]*dG*dA*dG*dG*d[5mC]*dG*dG*dT*kG*kA*kT; antisense) [compound 829988]	27
829989 (kG*kG*k[5mC]*d[5mC]*dG*d[5mC]*dG*dA*dG*dG*d[5mC]*dG*dG*kT*kG*kA; antisense) [compound 829989]	2
829990 (kG*kG*kG*d[5mC]*d[5mC]*dG*d[5mC]*dG*dA*dG*dG*d[5mC]*dG*kG*kT*kG; antisense) [compound 829990]	35
829991 (kA*kG*kG*dG*d[5mC]*d[5mC]*dG*d[5mC]*dG*dA*dG*dG*d[5mC]*kG*kG*kT; antisense) [compound 829991]	26
829992 (kG*k[5mC]*kA*dG*dG*dG*d[5mC]*d[5mC]*dG*d[5mC]*dG*dA*dG*kG*k[5mC]*kG; antisense) [compound 829992]	10
829993 (kG*kG*k[5mC]*dA*dG*dG*dG*d[5mC]*d[5mC]*dG*d[5mC]*dG*dA*kG*kG*k[5mC]; antisense) [compound 829993]	26
829996 (kT*kT*kT*dG*dT*d[5mC]*dT*dT*dA*dG*d[5mC]*dT*dG*kT*kG*kG; antisense) [compound 829996]	54
829997 (kG*kT*kT*dT*dG*dT*d[5mC]*dT*dT*dA*dG*d[5mC]*dT*kG*kT*kG; antisense) [compound 829997]	21
829998 (kT*kG*kT*dT*dT*dG*dT*d[5mC]*dT*dT*dA*dG*d[5mC]*kT*kG*kT; antisense) [compound 829998]	34
829999 (k[5mC]*kT*kG*dT*dT*dT*dG*dT*d[5mC]*dT*dT*dA*dG*k[5mC]*kT*kG; antisense) [compound 829999]	46
830000 (kA*k[5mC]*kT*dG*dT*dT*dT*dG*dT*d[5mC]*dT*dT*dA*kG*k[5mC]*kT; antisense) [compound 830000]	51
830001 (kG*k[5mC]*k[5mC]*d[5mC]*dA*dA*d[5mC]*dT*dG*dT*dT*dT*dG*kT*k[5mC]*kT; antisense) [compound 830001]	24
